Results reported in US10183015B2, “Heterocyclic compounds and methods of use” (Medivation Technologies LLC, priority 2015, dated 2019).

Test system: HepG2 cells
Assay: HepG2 cell viability under serum-free conditions (MTS)
Assay type: cell-based
Conditions: Homo sapiens, HepG2, 72 h; 5 μM, 3 days, DMEM without FBS; read-out: Average Viability (% Inhibition, n = 3)
Experimental: Cancer cells such as HepG2 cells depend on SREBP activation and de novo lipogenesis to survive, particularly in low serum or serum-free conditions. Using this model, compounds were screened over 24 hours for the ability to block cleavage of SREBP to its active form and over 72 hours for an effect on cell viability under serum-free conditions.
For viability measurements, HepG2 cells were seeded at 5,000 cells per well in 96-well plates in DMEM supplemented with 10% FBS. After 1 day in culture, cells were treated with compounds (20 μM & 5 μM) for 3 days in DMEM without FBS. Viability was measured by MTS […]. […]

Going from `O=S(=O)(Nc1ccc(-c2csc(-c3ccnc(N4CCCCC4)c3)n2)c(Cl)c1)C(F)(F)F` [Compound 85, N-(3-chloro-4-{2-[2-(piperidin-1-yl)pyridin-4-yl]-1,3-thiazol-4-yl}phenyl)-1,1,1-trifluoromethanesulfonamide] to `CN1CCN(c2cc(-c3nc(-c4ccc(NS(=O)(=O)C(F)(F)F)cc4Cl)cs3)ccn2)CC1` [Compound 76, N-(3-chloro-4-{2-[2-(4-methylpiperazin-1-yl)pyridin-4-yl]-1,3-thiazol-4-yl}phenyl)-1,1,1-trifluoromethanesulfonamide], the cytotoxicity at 5 µM falls from 93% to 3%.

Compared with `O=S(=O)(Nc1ccc(-c2csc(-c3csc4ccccc34)n2)c(Cl)c1)C(F)(F)F` [Compound 90, N-{4-[2-(1-benzothiophen-3-yl)-1,3-thiazol-4-yl]-3-chlorophenyl}-1,1,1-trifluoromethanesulfonamide], `O=S(=O)(Nc1ccc(-c2csc(-c3c[nH]c4ccccc34)n2)c(Cl)c1)C(F)(F)F` [Compound 93, N-{3-chloro-4-[2-(1H-indol-3-yl)-1,3-thiazol-4-yl]phenyl}-1,1,1-trifluoromethanesulfonamide] is lower in cytotoxicity at 5 µM: 99% for the first, 82% for the second.

Compared with `O=S(=O)(Nc1ccc(-c2csc(-c3cccc(N4CCCCC4)c3)n2)c(Cl)c1)C(F)(F)F` [Compound 88, N-(3-chloro-4-{2-[3-(piperidin-1-yl)phenyl]-1,3-thiazol-4-yl}phenyl)-1,1,1-trifluoromethanesulfonamide], `O=S(=O)(Nc1ccc(-c2csc(-c3ccc(F)cc3CN3CCCC3)n2)c(Cl)c1)C(F)(F)F` [Compound 91, N-(3-chloro-4-{2-[4-fluoro-2-(pyrrolidin-1-ylmethyl)phenyl]-1,3-thiazol-4-yl}phenyl)-1,1,1-trifluoromethanesulfonamide] is lower in cytotoxicity at 5 µM: 19% for the first, 4% for the second.

Going from `O=S(=O)(Nc1ccc(-c2csc(-c3cccc4[nH]ccc34)n2)c(Cl)c1)C(F)(F)F` [Compound 80, N-{3-chloro-4-[2-(1H-indol-4-yl)-1,3-thiazol-4-yl]phenyl}-1,1,1-trifluoromethanesulfonamide] to `O=S(=O)(Nc1ccc(-c2csc(-c3ccc4cc[nH]c4c3)n2)c(Cl)c1)C(F)(F)F` [Compound 72, N-{3-chloro-4-[2-(1H-indol-6-yl)-1,3-thiazol-4-yl]phenyl}-1,1,1-trifluoromethanesulfonamide], the cytotoxicity at 5 µM rises from 86% to 94%.

Compared with `O=S(=O)(Nc1ccc(-c2csc(-c3cccc4ccccc34)n2)c(Cl)c1)C(F)(F)F` [Compound 71, N-{3-chloro-4-[2-(naphthalen-1-yl)-1,3-thiazol-4-yl]phenyl}-1,1,1-trifluoromethanesulfonamide], `O=S(=O)(Nc1ccc(-c2csc(-c3ccnc4ccccc34)n2)c(Cl)c1)C(F)(F)F` [Compound 94, N-[3-chloro-4-[2-(4-quinolyl)thiazol-4-yl]phenyl]-1,1,1-trifluoro-methanesulfonamide] is lower in cytotoxicity at 5 µM: 97% for the first, 84% for the second.

Going from `O=S(=O)(Nc1ccc(-c2csc(-c3ccccc3CO)n2)c(Cl)c1)C(F)(F)F` [Compound 84, N-(3-chloro-4-{2-[2-(hydroxymethyl)phenyl]-1,3-thiazol-4-yl}phenyl)-1,1,1-trifluoromethanesulfonamide] to `O=S(=O)(Nc1ccc(-c2csc(-c3ccccc3-c3ccccc3)n2)c(Cl)c1)C(F)(F)F` [Compound 74, N-{3-chloro-4-[2-(2-phenylphenyl)-1,3-thiazol-4-yl]phenyl}-1,1,1-trifluoromethanesulfonamide], the cytotoxicity at 5 µM rises from 18% to 97%.

Compared with `Cc1cnccc1-c1nc(-c2ccc(NS(=O)(=O)C(F)(F)F)cc2Cl)cs1` [Compound 86, N-{3-chloro-4-[2-(3-methylpyridin-4-yl)-1,3-thiazol-4-yl]phenyl}-1,1,1-trifluoromethanesulfonamide], `O=S(=O)(Nc1ccc(-c2csc(-c3ccnc(Cl)c3)n2)c(Cl)c1)C(F)(F)F` [Compound 95, N-(3-chloro-4-(2-(2-chloropyridin-4-yl)thiazol-4-yl)phenyl)-1,1,1-trifluoromethanesulfonamide] is higher in cytotoxicity at 5 µM: 27% for the first, 86% for the second.

Going from `Cc1ccc(S(=O)(=O)Nc2cccc(-c3nc(-c4ccc(NS(=O)(=O)C(F)(F)F)cc4Cl)cs3)c2)cc1` [Compound 78, N-{3-[4-(2-chloro-4-trifluoromethanesulfonamidophenyl)-1,3-thiazol-2-yl]phenyl}-4-methylbenzene-1-sulfonamide] to `COc1ccc(-c2nc(-c3ccc(NS(=O)(=O)C(F)(F)F)cc3Cl)cs2)cc1OC` [Compound 79, N-{3-chloro-4-[2-(3,4-dimethoxyphenyl)-1,3-thiazol-4-yl]phenyl}-1,1,1-trifluoromethanesulfonamide], the cytotoxicity at 5 µM falls from 87% to 74%.

Compared with `O=S(=O)(Nc1ccc(-c2csc(-c3ccc(F)cc3C(F)(F)F)n2)c(Cl)c1)C(F)(F)F` [Compound 81, N-[3-chloro-4-[2-[4-fluoro-2-(trifluoromethyl)phenyl]thiazol-4-yl]phenyl]-1,1,1-trifluoro-methanesulfonamide], `Cc1noc(C)c1-c1nc(-c2ccc(NS(=O)(=O)C(F)(F)F)cc2Cl)cs1` [Compound 77, N-{3-chloro-4-[2-(dimethyl-1,2-oxazol-4-yl)-1,3-thiazol-4-yl]phenyl}-1,1,1-trifluoromethanesulfonamide] is lower in cytotoxicity at 5 µM: 88% for the first, 41% for the second.

Going from `O=S(=O)(Nc1ccc(-c2csc(-c3ccnc(CC4CCCCC4)c3)n2)c(Cl)c1)C(F)(F)F` [Compound 70, N-(3-chloro-4-{2-[2-(cyclohexylmethyl)pyridin-4-yl]-1,3-thiazol-4-yl}phenyl)-1,1,1-trifluoromethanesulfonamide] to `O=S(=O)(Nc1ccc(-c2csc(-c3ccnc(NC4CCCC4)c3)n2)c(Cl)c1)C(F)(F)F` [Compound 92, N-(3-chloro-4-{2-[2-(cyclopentylamino)pyridin-4-yl]-1,3-thiazol-4-yl}phenyl)-1,1,1-trifluoromethanesulfonamide], the cytotoxicity at 5 µM falls from 100% to 94%.

Same assay, conditions: Homo sapiens, HepG2, 72 h; 20 μM, 3 days, DMEM without FBS; read-out: Average Viability (% Inhibition, n = 3)

Going from `CS(=O)(=O)Nc1cc(-c2nc(-c3ccc(NS(=O)(=O)C(F)(F)F)cc3Cl)cs2)ccn1` [Compound 62, N-{3-chloro-4-[2-(2-methanesulfonamidopyridin-4-yl)-1,3-thiazol-4-yl]phenyl}-1,1,1-trifluoromethanesulfonamide] to `O=S(=O)(Nc1ccc(-c2csc(-c3ccnc(NS(=O)(=O)C(F)(F)F)c3)n2)c(Cl)c1)C(F)(F)F` [Compound 66, N-{3-chloro-4-[2-(2-trifluoromethanesulfonamidopyridin-4-yl)-1,3-thiazol-4-yl]phenyl}-1,1,1-trifluoromethanesulfonamide], the cytotoxicity at 20 µM rises from 0% to 11%.

First: O=S(=O)(Nc1ccc(-c2csc(-c3ccnc(CCC(F)(F)F)c3)n2)c(Cl)c1)C(F)(F)F [Compound 64, N-(3-chloro-4-{2-[2-(3,3,3-trifluoropropyl)pyridin-4-yl]-1,3-thiazol-4-yl}phenyl)-1,1,1-trifluoromethanesulfonamide]
Second: CCCc1cc(-c2nc(-c3ccc(NS(=O)(=O)C(F)(F)F)cc3Cl)cs2)ccn1 [Compound 4, N-(3-chloro-4-(2-(2-propylpyridin-4-yl)thiazol-4-yl)phenyl)-1,1,1-trifluoromethanesulfonamide]
The cytotoxicity at 20 µM of the first is higher: 100% for the first, 94.4% for the second.

First: Nc1cc(-c2nc(-c3ccc(NS(=O)(=O)C(F)(F)F)cc3Cl)cs2)ccn1 [Compound 61, N-{4-[2-(2-aminopyridin-4-yl)-1,3-thiazol-4-yl]-3-chlorophenyl}-1,1,1-trifluoromethanesulfonamide]
Second: O=S(=O)(Nc1ccc(-c2csc(-c3ccnc(Cc4ccccc4)c3)n2)c(Cl)c1)C(F)(F)F [Compound 60, N-{4-[2-(2-benzylpyridin-4-yl)-1,3-thiazol-4-yl]-3-chlorophenyl}-1,1,1-trifluoromethanesulfonamide]
The cytotoxicity at 20 µM of the first is lower: 43% for the first, 100% for the second.

Compared with `CCCc1cc(-c2nc(-c3ccc(NS(=O)(=O)C(F)(F)F)cc3)cs2)ccn1` [Compound 1, 1,1,1-trifluoro-N-(4-(2-(2-propylpyridin-4-yl)thiazol-4-yl)phenyl)methanesulfonamide], `CCCc1cc(-c2nc(-c3cccc(NS(=O)(=O)C(F)(F)F)c3)cs2)ccn1` [Compound 2, 1,1,1-trifluoro-N-(3-(2-(2-propylpyridin-4-yl)thiazol-4-yl)phenyl)methanesulfonamide] is lower in cytotoxicity at 20 µM: 92.1% for the first, 80.5% for the second.

First: O=C(c1ccc(-c2nc(-c3ccc(NS(=O)(=O)C(F)(F)F)cc3Cl)cs2)cc1)N1CCCCC1 [Compound 67, N-(3-chloro-4-{2-[4-(piperidine-1-carbonyl)phenyl]-1,3-thiazol-4-yl}phenyl)-1,1,1-trifluoromethanesulfonamide]
Second: CCCc1cc(-c2nc(-c3ccc(NS(=O)(=O)C(F)(F)F)c(OC)c3)cs2)ccn1 [Compound 58, 1,1,1-trifluoro-N-{2-methoxy-4-[2-(2-propylpyridin-4-yl)-1,3-thiazol-4-yl]phenyl}methanesulfonamide]
The cytotoxicity at 20 µM of the first is lower: 20% for the first, 67.9% for the second.

First: COc1cc(-c2csc(-c3ccnc(CC(C)C)c3)n2)ccc1NS(=O)(=O)C(F)(F)F [Compound 57, 1,1,1-trifluoro-N-(2-methoxy-4-{2-[2-(2-methylpropyl)pyridin-4-yl]-1,3-thiazol-4-yl}phenyl) methanesulfonamide]
Second: COc1cc(-c2csc(-c3ccnc(C(C)(C)C)c3)n2)ccc1NS(=O)(=O)C(F)(F)F [Compound 59, N-(4-(2-(2-tert-butylpyridin-4-yl)thiazol-4-yl)-2-methoxyphenyl)-1,1,1-trifluoromethanesulfonamide]
The cytotoxicity at 20 µM of the first is lower: 56.4% for the first, 99.8% for the second.
